Laboratory results: patent US20040137389A1, “Heat-developable light-sensitive material” (priority 2002, published 2004)
Read-outs that look alike come from different tables or passages of the source. Blank lines part the entries; values can stand above or below the molecule they belong to.

What was measured:
[1] = Difference between light absorption intensity before and after heat development (absorbance at 415 nm), Examples 1 and 2; conditions: A/B×100 (after/before heat development, silver iodide-free sample as base), development 24 seconds, Example 1
Experimental: (§1) Each sample was thermally developed with Fuji Medical Dry Laser Imager FM-DPL Model in which the temperatures of four panel heaters were set at 112° C., 118° C., 120° C. and 120° C., respectively and which the overall development time was set at 24 seconds.
Using a spectral photometer U-4100 (manufactured by Hitachi) equipped with an integrating sphere, the spectral absorbance of each sample was measured. […] The change rate of the absorbance at 415 nm of each of samples 11 to 20 before heat development and that after heat development was measured. Apart from the above samples, silver iodide-free sample was prepared, and the absorbance thereof at 415 nm was used as a base standard. The absorbance reduction rate of each sample was computed according to the formula mentioned below.
Absorbance reduction rate (%)=A/B×100
(§2) A=(absorbance of a sample after heat development)−(absorbance of a silver iodide-free sample after heat development)
(§3) B=(absorbance of the sample before heat development)−(absorbance of a silver iodide-free sample before heat development)

[2] = Retention of absorbance at 415 nm after heat development, Examples 3 and 4; conditions: A/B×100 (after/before heat development), development 24 seconds, grain size 0.12 μm, Example 3
Experimental: as §1
Using a spectral photometer U-4100 (manufactured by Hitachi) equipped with an integrating sphere, the spectral absorbance of each sample was measured. The change rate of the absorbance at 415 nm of each sample before heat development and that after heat development was measured. Apart from the above samples, silver iodide-free sample was prepared, and the absorbance thereof at 415 nm was used as a base standard. The retention of absorbance of each sample was computed according to the formula mentioned below. The smaller the retention, the larger the reduction in absorption, which is preferable.
Retention of Absorbance (%)=A/B×100
as §2, §3

[3] = Measurement of acid dissociation constant pKa by potentiometric titration; type: physicochemical; conditions: 25° C.; for pKa of Conjugate Acid: Table 2
Experimental: Using an automatic potentiometric titration meter, Kyoto Electronic Industry's AT-420, the acid dissociation constant (pKa) of the conjugate acid of the compound of formula (1) in a mixed solution of tetrahydrofuran and water (3/2) was measured at 25° C.
Using an automatic potentiometric titration meter, Kyoto Electronic Industry's AT-420, the acid dissociation constant (pKa) of the conjugate acid of the silver iodide complex-forming agent in a mixed solution of tetrahydrofuran and water (3/2) was measured at 25° C.

[4] = Hammett's substituent constants of Y11 to Y14; constants from Chemical Review, 1991, Vol. 91; cited from earlier work
[5] = compound of formula (1) or (2), tetrahydrofuran/water (3/2)
[6] = conjugate acid of the silver iodide complex-forming agent, tetrahydrofuran/water (3/2), Table 5
[7] = conjugate acid of the silver iodide complex-forming agent, tetrahydrofuran/water (3/2), Table 8

SMILES: CC(C)c1ccc2cnncc2c1 [6-isopropylphthalazine]
Absorbance Change Rate (%) [1]: may lower the absorption intensity | Silver Iodide Absorption Retention (%) [2]: more effective than phthalazine

SMILES: O=C(Nc1ccncc1)c1ccccc1 [Sample F-325]
pKa of Conjugate Acid [3, 5]: 4.2 | pKa [3, 6]: 4.2 | pKa ([3]; conjugate acid of the silver iodide complex-forming agent, tetrahydrofuran/water (3/2), Table 6): 4.2 | pKa [3, 7]: 4.2 | Compound of Formula (1) or (2) pKa ([3]; conjugate acid, tetrahydrofuran/water (3/2), Table 1): 4.2 | Silver Iodide Complex-forming Agent pKa ([3]; conjugate acid, tetrahydrofuran/water (3/2), Table 3): 4.2

pKa of Conjugate Acid [3, 5]: 5.4 | pKa [3, 6]: 5.4 | pKa [3, 7]: 5.4
SMILES: Cc1nnc(C)c(C)c1C [Sample F-404]

pKa of Conjugate Acid [3, 5]: 3.6 | pKa [3, 6]: 3.6 | pKa [3, 7]: 3.6
SMILES: c1ccc(-c2ccnnc2)cc1 [Sample F-405]

pKa ([3]; tetrahydrofuran/water (3/2) mixed solution, compound of formula (1) or (2), Table 2, read-out: pKa of Conjugate Acid): 4.2
SMILES: c1cc2cnncc2s1 [Sample F-421]

SMILES: Cc1cccc2c(=O)[nH]ncc12 [Sample I-1]
Total Sum of σ p [4]: −0.17

SMILES: Cc1ccc2c(=O)[nH]ncc2c1 [Sample I-2]
Total Sum of σ p [4]: −0.17

SMILES: Cc1ccc2cn[nH]c(=O)c2c1 [Sample I-3]
Total Sum of σ p [4]: −0.17

SMILES: Cc1cccc2cn[nH]c(=O)c12 [Sample I-4]
Total Sum of σ p [4]: −0.17

SMILES: CCc1cccc2c(=O)[nH]ncc12 [Sample I-5]
Total Sum of σ p [4]: −0.15

SMILES: CCc1ccc2c(=O)[nH]ncc2c1 [Sample I-6]
Total Sum of σ p [4]: −0.15

SMILES: CCc1ccc2cn[nH]c(=O)c2c1 [Sample I-7]
Total Sum of σ p [4]: −0.15

SMILES: CCc1cccc2cn[nH]c(=O)c12 [Sample I-8]
Total Sum of σ p [4]: −0.15

SMILES: CCCc1ccc2c(=O)[nH]ncc2c1 [Sample I-9]
Total Sum of σ p [4]: −0.13

SMILES: CCCc1cccc2c(=O)[nH]ncc12 [Sample I-10]
Total Sum of σ p [4]: −0.13

SMILES: CCCc1ccc2cn[nH]c(=O)c2c1 [Sample I-11]
Total Sum of σ p [4]: −0.13

SMILES: CCCc1cccc2cn[nH]c(=O)c12 [Sample I-12]
Total Sum of σ p [4]: −0.13

SMILES: CC(C)c1ccc2c(=O)[nH]ncc2c1 [Sample I-13]
Total Sum of σ p [4]: −0.15

SMILES: CCCCc1ccc2c(=O)[nH]ncc2c1 [Sample I-14]
Total Sum of σ p [4]: −0.16

SMILES: O=c1[nH]ncc2cc(-c3ccccc3)ccc12 [Sample I-15]
Total Sum of σ p [4]: −0.01

SMILES: CC(C)Cc1ccc2c(=O)[nH]ncc2c1 [Sample I-16]
Total Sum of σ p [4]: −0.12

SMILES: CC(C)(C)c1ccc2c(=O)[nH]ncc2c1 [Sample I-17]
Total Sum of σ p [4]: −0.20

SMILES: Cc1cc2cn[nH]c(=O)c2cc1C [Sample I-18]
Total Sum of σ p [4]: −0.34

SMILES: Cc1ccc2c(=O)[nH]ncc2c1C [Sample I-19]
Total Sum of σ p [4]: −0.34

SMILES: Cc1cc2c(=O)[nH]ncc2c(C)c1C [Sample I-20]
Total Sum of σ p [4]: −0.51

SMILES: CCc1cc2cn[nH]c(=O)c2cc1C [Sample I-21]
Total Sum of σ p [4]: −0.32

SMILES: CC(C)c1ccc2cn[nH]c(=O)c2c1 [Sample I-22]
Total Sum of σ p [4]: −0.15

SMILES: CCCCc1ccc2cn[nH]c(=O)c2c1 [Sample I-23]
Total Sum of σ p [4]: −0.16

SMILES: CCC(C)c1ccc2cn[nH]c(=O)c2c1 (stereo not shown) [Sample I-24]
Total Sum of σ p [4]: −0.12

SMILES: CC(C)Cc1ccc2cn[nH]c(=O)c2c1 [Sample I-25]
Total Sum of σ p [4]: −0.12

SMILES: COc1cccc2c(=O)[nH]ncc12 [Sample I-26]
Total Sum of σ p [4]: −0.27

SMILES: COc1ccc2c(=O)[nH]ncc2c1 [Sample I-27]
Total Sum of σ p [4]: −0.27

SMILES: COc1ccc2cn[nH]c(=O)c2c1 [Sample I-28]
Total Sum of σ p [4]: −0.27

SMILES: COc1cccc2cn[nH]c(=O)c12 [Sample I-29]
Total Sum of σ p [4]: −0.27

SMILES: CCOc1cccc2c(=O)[nH]ncc12 [Sample I-30]
Total Sum of σ p [4]: −0.24

SMILES: CCOc1ccc2c(=O)[nH]ncc2c1 [Sample I-31]
Total Sum of σ p [4]: −0.24

SMILES: CCOc1ccc2cn[nH]c(=O)c2c1 [Sample I-32]
Total Sum of σ p [4]: −0.24

SMILES: CCOc1cccc2cn[nH]c(=O)c12 [Sample I-33]
Total Sum of σ p [4]: −0.24

SMILES: CCCOc1cccc2c(=O)[nH]ncc12 [Sample I-34]
Total Sum of σ p [4]: −0.32

SMILES: CCCOc1ccc2c(=O)[nH]ncc2c1 [Sample I-35]
Total Sum of σ p [4]: −0.32

SMILES: CCCOc1ccc2cn[nH]c(=O)c2c1 [Sample I-36]
Total Sum of σ p [4]: −0.32

SMILES: CCCOc1cccc2cn[nH]c(=O)c12 [Sample I-37]
Total Sum of σ p [4]: −0.32

SMILES: CC(C)Oc1ccc2c(=O)[nH]ncc2c1 [Sample I-38]
Total Sum of σ p [4]: −0.33

SMILES: CCCCOc1ccc2c(=O)[nH]ncc2c1 [Sample I-39]
Total Sum of σ p [4]: −0.34

SMILES: COc1cc2cn[nH]c(=O)c2cc1OC [Sample I-40]
Total Sum of σ p [4]: −0.54

SMILES: COc1ccc2c(=O)[nH]ncc2c1OC [Sample I-41]
Total Sum of σ p [4]: −0.54

SMILES: COc1cc2c(=O)[nH]ncc2c(OC)c1OC [Sample I-42]
Total Sum of σ p [4]: −0.81

SMILES: O=c1[nH]ncc2cc(Oc3ccccc3)ccc12 [Sample I-47]
Total Sum of σ p [4]: −0.03

SMILES: O=c1[nH]ncc2ccc(Oc3ccccc3)cc12 [Sample I-48]
Total Sum of σ p [4]: −0.03

SMILES: CCN(CC)c1ccc2c(=O)[nH]ncc2c1 [Sample I-59]
Total Sum of σ p [4]: −0.72

SMILES: Nc1ccc2c(=O)[nH]ncc2c1 [Sample I-60]
Total Sum of σ p [4]: −0.66

SMILES: CC(=O)Nc1ccc2c(=O)[nH]ncc2c1 [Sample I-61]
Total Sum of σ p [4]: 0.00

SMILES: O=C(Nc1ccc2c(=O)[nH]ncc2c1)c1ccccc1 [Sample I-62]
Total Sum of σ p [4]: −0.19

SMILES: O=c1[nH]ncc2cc(NS(=O)(=O)c3ccccc3)ccc12 [Sample I-65]
Total Sum of σ p [4]: 0.01

SMILES: CC(=O)Oc1ccc2cn[nH]c(=O)c2c1 [Sample I-69]
Total Sum of σ p [4]: 0.31

SMILES: CN(C)c1ccc2cn[nH]c(=O)c2c1 [Sample I-74]
Total Sum of σ p [4]: −0.83

SMILES: c1ccc2cnncc2c1 [phthalazine, Phthalazine]
Silver Iodide Absorption Retention (%) [2]: effective for reducing the absorption intensity
